Source: US20240060131A1, “METHOD FOR IDENTIFYING AND/OR REGULATING SENESCENCE” (INSTITUTE OF ZOOLOGY, CHINESE ACADEMY OF SCIENCES, priority 2020, published 2024)

Experiments:
[1] = tested on: HERVK; assay: HERVK transposition events (reporter, flow cytometry) and DNA copy number in WS hMPC; assay type: cell-based, human; conditions: 10 days after incubation
Protocol: The experiment for detecting DNA of HERVK gene by single molecule DNA-FISH was conducted by the National Key Laboratory of Agricultural Microbiology, Huazhong Agricultural University. Senescent cells were successively treated by RNase A (100 μg/mL, dissolved in 2×SSC) at 37° C. for 1 h, treated by 70% formamide dissolved in 2×SSC at 72° C. for 10 min, treated by precooled ethanol (concentration from 80%, 90% to 100%, each treatment for 1 min). Then cells were incubated with HERVK […] specific probe pairs (each probe 10 μM) in hybridization solution (10% deionized formamide, 2×SSC, 10% dextran sulfate and 2 mM VRC) at 42° C. overnight. Washed 3 times by washing buffer (2×SSC, 30% formamide, 0.1% Triton-X 100 and 2 mM VRC), cells were incubated with amplification probes (SFSP-001 and SFTP-001, Spatial FISH, Co., Ltd.) and fluorescent probes (SFFP-001, Spatial FISH, Co., Ltd) together, HERVK DNA was subjected to single molecule detection. Finally, cells were counterstained by DAPI and imaged by confocal microscope.
In brief, to assess transposition events occurred in HERVK during aging process, wild type mesenchymal stem cells of early passage and late passage (P7 generation and P14 generation) were transfected with HERVK reporter plasmid, and meanwhile co-transfected with dsRed, a vector expressing red fluorescence (obtained from Xu Xingzhi's Laboratory, School of Basic Medicine, Shenzhen University) to calculate transfection probability. After the confluence of cells, cells were digested into single cell, and resuspended by PBS, analyzed by flow cytometer BD Influx, the ratio of cells positive for green fluorescence to cells positive for red fluorescence was the probability of transposition events occurred in HERVK.
To construct HERVK transposition reporter vector, first, above-mentioned HERVK fragment was cloned to dsRed vector having KpnI enzyme site mutant (obtained from Xu Xingzhi's Laboratory, School of Basic Medicine, Shenzhen University). GFP reporter (SEQ ID NO: 152) was obtained by PCR amplification from L 1 reporter (gifted by Prof. Wang Jichang, Sun Yat-sen University in Guangzhou, China), GFP reporter was inserted to dsRed-HERVK through KpnI site, contructing HERVK transposition reporter vector.
To assess transposition events occurred for HERVK during aging process, cells of early and late generations were transfected with HERVK reporter plasmid, and meanwhile co-transfected with a vector expressing red fluorescence to calculate transfection probability. After confluence of cells, cells were digested into single cell, and resuspended with PBS, analyzed by flow cytometer BD Influx, the ratio of cells positive for green fluorescence to cells positive for red fluorescence was the probability of transposition events occurred in HERVK. […]

[2] = tested on: old mice; assay: Abacavir injected to articular cavity of old mice (joint aging); assay type: in vivo, mouse
Protocol: 10 μl Abacavir (in PBS with 2% DMSO) at the concentration of 10 mg/ml was injected to knee joint cavities of mice of 22 months old (n=12), injected once a week. Grip strength test was performed 4 weeks, 8 weeks and 12 weeks after the first injection. Motor coordination and balance, motor ability and Micro-CT were performed 14 weeks after the first injection, samples were taken, i.e., joints of mice hind limbs were taken out, one was frozen in liquid nitrogen and the other was fixed in 4% PFA.
(§1) Grip strength of the limbs was measured by Grip strength meter (Panlab Grip Strength Meter, LE902) in accordance with the manufacturer's instructions. In brief, mice were put on the top of grip strength meter and pulled along the grid at a constant rate, until mice loosened its grip. The peak tension in each of the 10 repeats was recorded, and the mean value was calculated as grip strength for each mouse.
Mice were placed on a running machine (SANS Bio Instrument, SA101) to test the motor ability of mice in accordance with the manufacturer's instructions. In particular, slope of runway was set as 5°, electrical stimulation was 2 mA, the running speed was set as follows: an initial velocity of 5 m/min for 5 min; then accelerating to final velocity of 25 m/min with an accelerated rate of 1 m/min 2, 20 mins in total. First, mice were trained for three consecutive days, and tested on the fourth day. The times of electrical stimulation, and the run distance in […] were recorded.
Micro-CT (PE Quantum FX) was performed in accordance with the manufacturer's instructions. In brief, mice were anesthetized and placed in the instrument, scanning parameters for Micro-CT were voltage 50Kvp, power 40 W, 6-frame superposition, field 4 cm×4 cm. Three-dimensional images were screenshot after scan and reconstruction, and bone density was calculated by Ansys software.
5.2. Retrovirus inhibitor Abacavir delayed joint aging of old mice Retrovirus inhibitor Abacavir was injected to articular cavity of old mice (23 months old), concentration was 10 mg/ml, once a week, 10 μl every time (as shown by FIG. 32A). (n=10)

[3] = tested on: old mice; assay: Long-term oral administration of Abacavir in drinking water to old mice; assay type: in vivo, mouse; conditions: for mice died: n=23
Protocol: Abacavir was dissolved in drinking water containing 0.4% DMSO at 2 mg/ml, mice of 18 months old were administered by feeding the water daily (n=23). The weight, hollow back, hair, skin, eye (cataract) and activity score of mice were measured 6 weeks, 12 weeks and 24 weeks after administration, grip strength was measured and a survival curve was plotted. […]
as §1
Mice were placed in the end of any arm of Y maze (trisection radiation maze, consisting of 3 arms with equal length (50 cm×18 cm×35 cm), the intersection angle between every two arms was 120 degree), allowed to explore freely for 5 min, animal behavior changes in 5 min were recorded by camera system, and the short-term spatial memory ability of mice was detected by recording the total times that the mice entered the arms and the rotations that the mice entered in turn the three arms of the Y maze.
Retrovirus inhibitor Abacavir was dissolved in drinking water for mice (containing 0.3% DMSO) at a concentration of 2 mg/ml (n=23), and mice of 18 months old was administered daily (as shown by FIG. 33A).

[4] = tested on: WS hMPC; assay: Ki67 and SA-β-gal staining of WS hMPC treated with retrovirus inhibitors; assay type: cell-based, human; conditions: WS hMPCs, 10 μM lamivudine (3TC), abacavir (0.2 μM), Raltegravir, vs DMSO solvent control
Protocol: Cells seeded on coverslip (Thermo Fisher Scientific) were washed by PBS, fixed in 4% paraformaldehyde (PFA), permeabilized in 0.4% Triton X-100, blocked by 10% donkey serum. The coverslip was incubated with primary antibody at 4° C. in blocking buffer, then incubated with secondary antibody at room temperature for 1 h. Nucleus was labelled by Hoechst 33342 (Invitrogen).
For treatment by endogenous viral reverse transcriptase inhibitor and integrase inhibitor, hMPCs were treated by […] abacavir, lamivudine (3TC) and Raltegravir, respectively, medium was replaced every 3 days, followed by new treatment. After treatment of two cell passages, cells were used for Ki67 immunofluorescence, SA-β-gal staining and RNA/DNA extraction.
Cells were fixed by a buffer containing 2% (w/v) formaldehyde and 0.2% (w/v) glutaraldehyde for 5 min, and treated by staining buffer containing 1 mg/mL X-gal at 37° C. overnight.
10 μM lamivudine (3TC), abacavir (0.2 μM) and Raltegravir were added to WS hMPC, respectively, incubated at 37° C., and fresh medium containing each drug was replaced every two days, solvents dissolving above-mentioned drug with DMSO added at a corresponding amount were used as control.
Above-mentioned cells were stained by Ki67 and SA-β-gal.

[5] = tested on: old mice; assay: Long-term intraperitoneal injection of Ratelgravir to old mice; assay type: in vivo, mouse; conditions: 16 weeks
Protocol: Ratelgravir was dissolved at 50 mg/ml in 30% PEG300+2% Tween80+2% DMSO, and intraperitoneally injected to mice at 18 months old, […] each time, twice a week (n=23). The weight, hollow back, hair, skin, cataract and activity score of mice were measured 8 weeks and 16 weeks after first injection, grip strength was measured and a survival curve was plotted.
as §1
The retrovirus integrase inhibitor Ratelgravir was dissolved in 30% PEG300+2% Tween80+2% DMSO at a concentration of 50 mg/ml, mice at 18 months old was injected intraperitoneally, […], 200 μl/injection, twice a week (as shown by FIG. 34A).

[6] = tested on: cGAS-STING pathway; assay: cGAS-STING innate immune pathway and SASP in hMPCs (Western blot, RT-qPCR); assay type: cell-based, human; conditions: knockdown in HGPS and WS hMPCs
Protocol: Cells were lysed in 1×SDS buffer (100 mM Tris-HCl, pH 6.8, 10% glycerol, 2% SDS and 2%2-mercaptoethanol), boiled for 10 min at 105° C. Protein concentration was measured by BCA kit. Cell lysate was subjected to SDS-PAGE electrophoresis, then transferred to PVDF membrane (Millipore). The membrane was incubated with primary antibody, incubated with secondary antibody conjugated to HRP after washing, then blotted with substrate, the substrate was the mixture of 1000 μL substrate A and 3 μL substrate B (substrate A: 0.2 mM cumaric acid, 1.25 mM luminal, 0.1 M Tris-HCl, pH 8.5; substrate B: 3% H2O2) or Super Signal West Femto Maximum Sensitivity Substrate (Thermo Fisher Scientific). Images were taken by Image Lab software. Quantification was conducted by ImageJ.
In accordance with the manufacturer's instructions, total RNA of cell was extracted by TRIzol (Thermo Fisher Scientific); reverse transcribed into cDNA with GoScript reverse transcription system (Promega) for RT-qPCR; RT-qPCR was conducted with THUNDERBIRD qPCR Mix (TOYOBO) and CFX384 real-time system (Bio-Rad Laboratories, Inc.).
To further study the activation of cGAS-STING DNA sensing pathway, the following key characteristics in different senescent hMPCs (including RS, HGPS and WS) and fibroblasts were detected: […] TANK binding kinase 1 (TBK1) and IFN regulating factor 3 (IRF3) as well as proinflammatory cytokines (e.g., IL1B andIL6), these factors were regarded as SASP factors.

[7] = articular cavity injection, P value not significant
[8] = drinking water 2 mg/ml, 24 weeks
[9] = drinking water 2 mg/ml, 30 weeks

Nc1nc(NC2CC2)c2ncn([C@H]3C=C[C@@H](CO)C3)c2n1 [Abacavir, abacavir]
HERVK DNA copy number [1]: decreases
HERVK transposition events [1]: reduces
HERVK DNA copy number ([1]; listed as abacavir): effectively reduce
HERVK transposition events ([1]; listed as abacavir): effectively reduce
bone density of joint ([2]; 15 weeks after injecting): increased
expression of senescence-associated protein p21 in joint ([2]; RT-qPCR of joint RNA): decreased
level of inflammatory factor IL1B in joint ([2]; RT-qPCR of joint RNA): decreased
level of inflammatory factor IL6 in joint ([2]; RT-qPCR of joint RNA): decreased
forced treadmill running distance [2, 7]: improve
forced treadmill running time [2, 7]: improve
forced treadmill shocked time ([2]; articular cavity injection, trend, P value not significant): reduce
limb tension of mice ([2]; old mice (23 months old), articular cavity 10 mg/ml, 10 μl once a week, 8 weeks after injecting, vs vehicle): significantly was enhanced
mice died ([3]; 24 weeks after administering, control group 2 died): 0
mice died ([3]; 30 weeks after administering, control group 4 died): 1
spatial short-term memory ability ([3]; Y Maze, 30 weeks): enhanced
condition of hair [3, 8]: improve
condition of hollow back [3, 8]: improve
mobility ability of mice [3, 8]: enhance
Y Maze rotations that the mice entered in turn the three arms [3, 9]: increased
Y Maze total times that the mice entered the arms [3, 9]: increased
survival rate of old mice ([3]; drinking water 2 mg/ml, up to 30 weeks): improve
limb tension of mice ([3]; mice of 18 months old, 2 mg/ml in drinking water daily, 12 weeks): significantly enhanced
Ki67 positive cells [4]: increase
SA-β-gal positive cells [4]: reduce
Ki67 positive cells ([4]; listed as abacavir): significantly were increased
SA-β-gal positive cells ([4]; listed as abacavir): significantly were decreased

Cc1nnc(C(=O)NC(C)(C)c2nc(C(=O)NCc3ccc(F)cc3)c(O)c(=O)n2C)o1 [Raltegravir]
condition of hair ([5]; i.p. twice a week): improve
condition of hollow back ([5]; i.p. twice a week): improve
limb tension of mice ([5]; mice at 18 months old, 50 mg/ml, 200 μl i.p. twice a week, vs vehicle): significantly was increased
Ki67 positive cells [4]: significantly were increased
SA-β-gal positive cells [4]: significantly were decreased
Ki67 positive cells ([4]; listed as Ratelgravir): increase
SA-β-gal positive cells ([4]; listed as Ratelgravir): reduce

shSTING-2 (guide GCCCGGATTCGAACTTACAAT; chemistry not given here)
SASP [6]: alleviated
cell senescence [6]: alleviated
phosphorylation level of IRF3 [6]: reduced
phosphorylation level of RelA [6]: reduced
phosphorylation level of TBK1 [6]: reduced
